What was measured:
[1] = test system: Colon cancer cells (HT-29 cell line); test: ERK inhibition cell proliferation assay (3H-thymidine uptake); format: cell-based; details: Homo sapiens, HT-29 cells, 3 days incubation
Procedure: Compounds may be assayed for the inhibition of ERK2 by a cell proliferation assay. In this assay, a complete media is prepared by adding 10% fetal bovine serum and penicillin/streptomycin solution to RPMI 1640 medium (JRH Biosciences). Colon cancer cells (HT-29 cell line) are added to each of 84 wells of a 96 well plate at a seeding density of 10,000 cells/well/150 μL. The cells are allowed to attach to the plate by incubating at 37° C. for 2 hours. A solution of test compound is prepared in complete media by serial dilution to obtain the following concentrations: 20 μM, 6.7 μM, 2.2 μM, 0.74 μM, 0.25 μM, and 0.08 μM. The test compound solution (50 μL) is added to each of 72 cell-containing wells. To the 12 remaining cell-containing wells, only complete media (200 μL) is added to form a control group in order to measure maximal proliferation. To the remaining 12 empty wells, complete media is added to form a vehicle control group in order to measure background. The plates are incubated at 37° C. for 3 days. A stock solution of ^3H-thymidine (1 mCi/mL, New England Nuclear, Boston, Mass.) is diluted to […] in RPMI medium then 20 μL of this solution is added to each well. The plates are further incubated at 37° C. for 8 hours then harvested and analyzed for ^3H-thymidine uptake using a liquid scintillation counter.

[2] = molecular target: activated ERK2 (Homo sapiens, UniProt P28482); test: ERK2 inhibition spectrophotometric coupled-enzyme assay; format: biochemical; details: activated ERK2 10 nM, 65 μM ATP, 30° C., pH 7.5; read-out: ERK2 Inhibitory Activity (Ki class)
activated ERK2, sequence (P28482 whole entry): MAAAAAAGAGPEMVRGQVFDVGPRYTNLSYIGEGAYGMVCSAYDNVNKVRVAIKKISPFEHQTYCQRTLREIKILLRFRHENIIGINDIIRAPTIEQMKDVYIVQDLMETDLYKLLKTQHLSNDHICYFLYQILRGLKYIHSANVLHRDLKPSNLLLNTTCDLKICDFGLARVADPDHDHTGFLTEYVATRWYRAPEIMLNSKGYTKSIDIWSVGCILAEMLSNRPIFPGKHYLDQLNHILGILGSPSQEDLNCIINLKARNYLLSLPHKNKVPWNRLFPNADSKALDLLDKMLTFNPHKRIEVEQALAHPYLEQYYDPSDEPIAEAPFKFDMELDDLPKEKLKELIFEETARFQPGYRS
Procedure: Compounds are assayed for the inhibition of ERK2 by a spectrophotometric coupled-enzyme assay (Fox et al (1998) Protein Sci 7, 2249). In this assay, a fixed concentration of activated ERK2 (10 nM) is incubated with various concentrations of the compound in DMSO (2.5%) for 10 min. at 30° C. in 0.1 M HEPES buffer, pH 7.5, containing 10 mM MgCl2, 2.5 mM phosphoenolpyruvate, 200 μM NADH, 150 μg/mL pyruvate kinase, 50 μg/mL lactate dehydrogenase, and 200 μM erktide peptide. The reaction is initiated by the addition of 65 μM ATP. The rate of decrease of absorbance at 340 nm is monitored, which indicates the extent of uninhibited enzyme present in the assay. The IC50 is evaluated from the rate data as a function of inhibitor concentration.
The compound numbers correspond to the compound numbers in Tables 1-3.

Row | Structure (SMILES) | IC50 [1] [nM] | Ki [2] [nM]
1 | CCCCNCc1ccc(-c2cn[nH]c2-c2c[nH]c(C(=O)NC(CO)c3ccc(F)c(Cl)c3)c2)cc1Cl (stereo not drawn) [II-7] | < 10000 | < 1000
2 | CC(=O)N[C@H](C(=O)NCc1ccc(-c2cn[nH]c2-c2c[nH]c(C(=O)N[C@H](CO)c3ccc(F)c(Cl)c3)c2)cc1Cl)C(C)C [II-21] | < 10000 | < 1000
3 | CCNCc1ccc(-c2c[nH]nc2-c2c[nH]c(C(=O)N[C@H](CO)c3ccc(F)c(Cl)c3)c2)cc1Cl [II-26, 4-[4-(3-Chloro-4-ethylaminomethyl-phenyl)-1H-pyrazol-3-yl]-1H-pyrrole-2-carboxylic acid [1-(3-chloro-4-fluoro-phenyl)-2-hydroxy-ethyl]-amide] | < 10000 | < 1000
4 | O=C(CCO)NCc1ccc(-c2cn[nH]c2-c2c[nH]c(C(=O)N[C@H](CO)c3ccccc3)c2)cc1Cl [II-4] | – | < 1000
5 | CC(=O)N[C@@H](CS)C(=O)NCc1ccc(-c2cn[nH]c2-c2c[nH]c(C(=O)NC(CO)c3ccc(F)c(Cl)c3)c2)cc1Cl (stereo partly drawn) [II-12] | – | < 1000
6 | CC(=O)NC(CC[S+](C)[O-])C(=O)NCc1ccc(-c2cn[nH]c2-c2c[nH]c(C(=O)NC(CO)c3ccc(F)c(Cl)c3)c2)cc1Cl (stereo not drawn) [II-16] | – | < 1000
7 | CC(C)(C)OC(=O)N[C@@H](CO)C(=O)NCc1ccc(-c2cn[nH]c2-c2c[nH]c(C(=O)NC(CO)c3ccc(F)c(Cl)c3)c2)cc1Cl (stereo partly drawn) [II-14] | – | < 1000

The next lines start with the values.

Row | IC50 [1] [nM] | Ki [2] [nM] | Structure (SMILES)
8 | – | < 1000 | CC(C(=O)O)N(C)Cc1ccc(-c2cn[nH]c2-c2c[nH]c(C(=O)N[C@H](CO)c3ccc(F)c(Cl)c3)c2)cc1C(F)(F)F (stereo partly drawn) [II-58]
9 | – | < 1000 | CCOC(=O)C(C)N(C)Cc1ccc(-c2cn[nH]c2-c2c[nH]c(C(=O)N[C@H](CO)c3ccc(F)c(Cl)c3)c2)cc1C(F)(F)F (stereo partly drawn) [II-64]
10 | – | < 1000 | CCCNCc1ccc(-c2cn[nH]c2-c2c[nH]c(C(=O)N[C@H](CO)c3ccc(F)c(Cl)c3)c2)cc1Cl [II-27]
11 | – | < 1000 | CCNC(=O)CNCc1ccc(-c2cn[nH]c2-c2c[nH]c(C(=O)N[C@H](CO)c3ccc(F)c(Cl)c3)c2)cc1Cl [II-71]
12 | – | < 1000 | CC(NCc1ccc(-c2cn[nH]c2-c2c[nH]c(C(=O)N[C@H](CO)c3ccc(F)c(Cl)c3)c2)cc1C(F)(F)F)C(=O)N(C)C (stereo partly drawn) [II-60]
